# Laboratory results published in US20070232796A1, “Medical Solution, a Method for Producing Said Medical Solution and Use Thereof” (priority 2004, published 2007).
# “Also recorded” adds a separate entry of the source.
# System: Cell Growth
# Assay: Inhibition of Cell Growth (ICG) as marker for cytotoxicity / biological reactivity
# Type: cell-based
# Text: FIG. 1 is a diagram showing the relation ship between Inhibition of Cell Growth (ICG) and concentration of 3,4-DGE in a solution.
# In order to investigate and come up with the present invention, the present inventors studied the relationship between the different GDPs and came to the conclusion that the GDPs interact according to the reaction formula given above.
smiles,measurement,setting,value
"O=CC(=O)C=CC(O)CO (centres unmarked) [3,4-DGE, 3,4-dideoxyglucosone-3-ene]","relationship between concentration of 3,4-DGE and Inhibition of Cell Growth (ICG)","FIG. 1, ICG used as measure/marker for biological reactivity","good dose relation between 3,4-DGE and cytotoxicity; also recorded: dose dependent relationship"
same,toxicity compared with the other known GDPs,"known GDPs: acetaldehyde, formaldehyde, glyoxal, methylglyoxal, 3-DG, 5-HMF",mast toxic of the known GDPs
